Experimental data reported in PubChem BioAssay (NCI).
Values joined by “and” are separate entries in the source; they are usually repeats but may differ in a detail not shown here. Equal values may be shown once.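 How tested: cells in 96-well plates exposed to compound for 48 hours at five concentrations. GI50 is the concentration that inhibits growth by half. TGI: total growth inhibition.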 *1 amine or outer side, *2 acyl side, *3 side chain or, on linkers, in order; H or OH if unused. Where a SMILES comes first, the peptide text is derived from it. Bridges are numbered along the chain shown (N, C = ends). [ ]: non-standard residue; d: D form. The star is where a group is joined. Phe(3,5-F2) = N[C@@H](Cc1cc(F)cc(F)c1)C(=O)O; Pro(4R-Me) = C[C@H]1CN[C@H](C(=O)O)C1; aThr = C[C@H](O)[C@H](N)C(=O)O; Pip = O=C(O)[C@@H]1CCCCN1; X10 = Fc1cc(C2CC2)ccc1N*; CO = O=C([*:1])[*:2]

Assays:
Test in all cases: DTP human tumour cell line panel, 48 h
A498 renal = test system: A498 renal
HCT-116 colon = test system: HCT-116 colon
IGROV1 ovarian = test system: IGROV1 ovarian
MOLT-4 leukemia = test system: MOLT-4 leukemia
OVCAR-5 ovarian = test system: OVCAR-5 ovarian
SK-MEL-2 melanoma = test system: SK-MEL-2 melanoma
SK-MEL-5 melanoma = test system: SK-MEL-5 melanoma
U251 CNS = test system: U251 CNS

Row | Structure (SMILES) | GI50 (A498 renal) | TGI (A498 renal) | GI50 (HCT-116 colon) | TGI (HCT-116 colon) | GI50 (IGROV1 ovarian) | TGI (IGROV1 ovarian) | GI50 (MOLT-4 leukemia) | TGI (MOLT-4 leukemia) | GI50 (OVCAR-5 ovarian) | TGI (OVCAR-5 ovarian) | GI50 (SK-MEL-2 melanoma) [µM] | TGI (SK-MEL-2 melanoma) [µM] | GI50 (SK-MEL-5 melanoma) | TGI (SK-MEL-5 melanoma) | GI50 (U251 CNS) | TGI (U251 CNS)
1 | Cc1ccc(CN2CCC(C(=O)Nc3ccc(-c4cc5ccccc5[nH]4)cc3)CC2)o1 | 4.04 µM | > 100 µM | > 100 µM | > 100 µM | > 100 µM | > 100 µM | > 100 µM | > 100 µM | > 100 µM | > 100 µM | > 100 | > 100 | 46.6 µM | > 100 µM | 21 µM | > 100 µM
2 | NS(=O)(=O)c1ccc2c(c1)OCCOCCOCCOCCO2 |  | > 100 µM |  | > 100 µM |  | > 100 µM |  | > 100 µM |  |  |  |  |  | > 100 µM |  | 
3 | C[C@@H]1C[C@H]2C(=O)O[C@@H](C)[C@H](NC(=O)[C@H](Cc3cc(F)cc(F)c3)NC(=O)Nc3ccc(C4CC4)cc3F)C(=O)N3CCC[C@H]3C(=O)N3CCCC[C@H]3C(=O)N[C@@H](C)C(=O)N2C1 ({X10-CO}-[Phe(3,5-F2)][aThr]P[Pip]A[Pro(4R-Me)]; ester 2-C) | 0.0203 µM | 0.363 µM | 0.0414 µM | 2.16 µM | 0.149 µM | 18.5 µM | 0.205 µM | > 42.7 µM | 0.0575 µM | 3.39 µM | 0.0549 | 3.83 | 0.0461 µM | 1.24 µM | 0.0479 µM | > 46 µM
4 | C[C@@H](Oc1cc(-n2cnc3ccc(CN4CCN(C)CC4)cc32)sc1C(N)=O)c1ccccc1C(F)(F)F | 0.0615 µM and 0.0341 µM | 0.982 µM and 0.187 µM | < 0.0125 µM and 0.0139 µM | 12.9 µM and > 10 µM | 0.0621 µM and 0.0336 µM | 15.1 µM and > 10 µM | < 0.0107 µM and 0.0112 µM | 4.71 µM and 2.76 µM | < 0.0175 µM and 0.0264 µM | 16.6 µM and > 10 µM |  | > 10 | 0.0218 µM and 0.0976 µM | 1.51 µM and > 10 µM | < 0.0137 µM and 0.0255 µM | 15.6 µM and > 10 µM
5 | Cc1cc(-c2nc(C(=O)Nc3cc4oc(N5CCOCC5)nc4nc3N3CC[C@@H](O)C3)co2)ccn1 | 1.34 µM | 39.2 µM | 30.1 µM | > 100 µM | 12.7 µM | 72.7 µM | 38.3 µM | > 100 µM | > 100 µM | > 100 µM | 23 | 99.8 | 45.7 µM | > 100 µM | 74.3 µM | > 100 µM
6 | Fc1[nH]nc2ccc([C@@H]3Nc4ccc5[nH]ncc5c4[C@H]4C5CCC(C5)[C@@H]34)cc12 (stereo partly drawn) | 0.536 µM | 3.91 µM | 0.441 µM | 12.1 µM | 0.86 µM | 16 µM | 0.651 µM | 12.7 µM | 3.06 µM | 14.6 µM | 0.913 | 12.2 | 1.94 µM | 12.4 µM | 1.02 µM | 13.5 µM
7 | OC1CSSC1Cn1cnc2c(Nc3ccc(OCc4cccc(F)c4)c(Cl)c3)ncnc21 (stereo not drawn) | 6.17 µM | 12.4 µM | 0.687 µM | 3.84 µM | 4.46 µM | 13.6 µM | 0.441 µM | 1.38 µM | 3.83 µM | 10.2 µM | 0.997 | 3.26 | 0.733 µM | 2.88 µM | 0.712 µM | 1.43 µM
8 | CCN(CC)N=Nc1c(C(N)=O)n[nH]c1C |  | > 100 µM |  | > 100 µM |  | > 100 µM |  |  |  |  |  | > 100 |  | > 100 µM |  | > 100 µM
9 | FC(F)(F)c1cccc(Nc2nc(-c3ccccc3)nc3ncccc23)c1 | 1.7 µM | 5.21 µM | 3.62 µM | 13.7 µM | 4.25 µM | 16.8 µM | 3.11 µM | 9.04 µM | 13.2 µM | 90.4 µM | 6.57 | 25.5 | 4.04 µM | 30.8 µM | 3.52 µM | 14.7 µM
10 | COC(=O)/C=C1\S/C(=N\NC(=O)c2cc3ccc2/C=C\c2ccc(cc2)/C=C\3)N(c2ccccc2)C1=O |  |  | 1.79 µM | 3.67 µM | 1.66 µM | 3.27 µM | 3.12 µM | > 100 µM | 1.92 µM | 3.84 µM | 2.65 | 7.76 | 7.56 µM | > 100 µM | 1.89 µM | 4 µM
11 | NS(=O)(=O)OC[C@@H]1C[C@@H](n2ccc3c(NC4CCc5ccccc54)ncnc32)C[C@@H]1O (stereo partly drawn) | 0.123 µM | 2.27 µM | 0.103 µM | 5.46 µM | 7.83 µM | > 100 µM | 0.37 µM | 11.1 µM | 16.4 µM | 96.9 µM | 0.74 | 21 | 0.305 µM | 17.2 µM | 0.559 µM | 36.9 µM
12 | C[N+](C)(C)CC(=O)N/N=C(/CC(=O)CC(C1=C(O)c2ccccc2OC1)c1ccccc1)C(=O)Nc1cccc(Cl)c1 (stereo not drawn) |  | > 100 µM |  | > 100 µM |  | > 100 µM |  | > 100 µM |  | > 100 µM |  | > 100 |  | > 100 µM |  | > 100 µM
13 | OCc1cc2ccccc2c2c3c(ccc12)OCO3 | 13.1 µM | 39.5 µM | 30.6 µM | 149 µM | 33.6 µM | 111 µM | 28.5 µM | 82.3 µM | 40.9 µM | 207 µM | 32.2 | 84.9 | 20.6 µM | 59.9 µM | 28.6 µM | 141 µM
14 | CN(C)c1ccc(/C=C\C2=[N+](C)c3ccccc3C2(C)C)cc1 | 4.38 µM | 28.2 µM | 0.32 µM | > 32.1 µM | 0.458 µM | > 50.1 µM |  | > 100 µM | 3.18 µM | 43.8 µM | 1.31 | 43.2 | 0.715 µM | 3 µM | 0.233 µM | 17.4 µM
15 | Cc1nc2sccn2c1-c1csc(Nc2ccccc2Cl)n1 | 1.24 µM | 12.7 µM | 3.3 µM | 16.2 µM | 5.45 µM | 50 µM | 3.28 µM | 17 µM | 9.58 µM | 75.1 µM | 3.83 | 17.9 | 2.15 µM | 10.3 µM | 3.7 µM | 24.1 µM
16 | O=C(Nc1ccc(-n2ccc3c(NC(=O)c4ccccc4)nccc32)cc1)c1ccc(Cl)c(C(F)(F)F)c1 | 6.1 µM | 33.1 µM | 0.0824 µM | 0.989 µM | 1.55 µM | 15.3 µM | 0.351 µM | > 20.7 µM | 3.84 µM | 27.3 µM | 6.16 | 31.6 | 0.132 µM | 8.67 µM | 0.095 µM | 5.3 µM
